“And” between values parts separate entries of the source, which are not always exact repeats. Equal entries are not always repeated.
Tests used:
TLR4/MyD88 binding = molecular target: T1, TLR4/MyD88 binding (Rattus norvegicus, UniProt Q9QX05); test: TLR4/MyD88 co-immunoprecipitation in P rat VTA; type: in vivo; conditions: 15 mg/kg IP, P rats
T1 construct: from tissue; host or cells: ventral tegmental area (VTA) of alcohol-preferring (P) rats
T1 sequence (Q9QX05 26-835): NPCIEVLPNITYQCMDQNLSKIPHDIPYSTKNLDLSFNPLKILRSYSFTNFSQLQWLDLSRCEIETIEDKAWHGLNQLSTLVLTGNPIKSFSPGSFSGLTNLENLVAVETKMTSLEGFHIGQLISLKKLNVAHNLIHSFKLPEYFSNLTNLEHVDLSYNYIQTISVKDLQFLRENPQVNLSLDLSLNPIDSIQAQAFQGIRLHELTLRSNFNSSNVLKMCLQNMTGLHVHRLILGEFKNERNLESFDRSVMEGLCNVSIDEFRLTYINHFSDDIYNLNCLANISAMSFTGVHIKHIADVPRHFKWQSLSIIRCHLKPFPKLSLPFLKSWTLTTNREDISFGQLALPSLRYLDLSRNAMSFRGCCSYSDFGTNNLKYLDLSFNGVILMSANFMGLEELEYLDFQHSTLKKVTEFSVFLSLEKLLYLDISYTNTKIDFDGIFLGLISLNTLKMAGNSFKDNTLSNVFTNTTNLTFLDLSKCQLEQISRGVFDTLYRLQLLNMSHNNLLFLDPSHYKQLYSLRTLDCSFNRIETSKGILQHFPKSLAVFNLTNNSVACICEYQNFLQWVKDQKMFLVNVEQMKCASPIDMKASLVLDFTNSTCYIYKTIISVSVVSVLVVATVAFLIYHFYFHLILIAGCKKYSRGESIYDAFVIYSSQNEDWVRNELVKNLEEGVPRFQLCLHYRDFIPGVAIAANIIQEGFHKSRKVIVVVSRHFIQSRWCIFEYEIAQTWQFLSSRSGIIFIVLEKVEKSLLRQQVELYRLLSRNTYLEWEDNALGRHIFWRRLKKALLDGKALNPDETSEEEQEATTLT
Method: (§1) Co-Immunoprecipitation Assay RAW264.7 cells [treated with LPS (1 μg/ml), 3α,5α-THP (1 μM) or pregnenolone (1 μM)] were exposed to chemical protein crosslinking (Poulopoulos et al, 2009) at 24 hrs post-treatment. Briefly, the cells were incubated (20 min on ice) with 1 mM of the cleavable, membrane-permeable crosslinker DSP (Thermo Fisher Scientific, Cat. #PG82081). Rat VTA homogenates were incubated (20 min on ice) with 200 μM of DSP. The crosslinker was quenched in 1 M Tris buffer (pH 7.5) (to a final concentration of 10-20 mM), and the material was centrifuged at 21,000×g for 15 min. Proteins from the cells were extracted with Pierce IP Lysis Buffer (Thermo Fisher Scientific, Cat. #87787) supplemented with protease and phosphatase inhibitor cocktails (Sigma). Proteins from the VTA were extracted with CelLytic MT (dialyzable mild detergent, bicine and 150 mM NaCl; Sigma Aldrich, St. Louis, Mo., USA, Cat. #C3228) supplemented with protease and phosphatase inhibitor cocktails (Sigma) according to the manufacturers instructions. […]

HMGB1 binding to TLR4 = molecular target: T2, HMGB1 binding to TLR4 (Rattus norvegicus, UniProt Q9QX05); test: TLR4/HMGB1 co-immunoprecipitation in P rat VTA; type: in vivo; conditions: 15 mg/kg IP, P rats
T2 construct: from tissue; host or cells: ventral tegmental area (VTA) of alcohol-preferring (P) rats
T2 sequence (Q9QX05 26-835): T1 sequence (Q9QX05 26-835)
Method: as §1

CC(=O)[C@H]1CC[C@H]2[C@@H]3CC[C@H]4C[C@H](O)CC[C@]4(C)[C@H]3CC[C@]12C [3α,5α-THP, (3α,5α)3-hydroxypregnan-20-one]
inhibition of TLR4/MyD88 binding in VTA (TLR4/MyD88 binding): 43.5±5.4% and ~40% | HMGB1 binding to TLR4 in VTA (HMGB1 binding to TLR4): not altered

Source: patent publication US20210205329A1 (The University of North Carolina at Chapel Hill, priority 2018, published 2021)
